From patent US20130309380A1, “METHODS FOR PRESERVING FRESH PRODUCE” (NatureSeal, Inc., priority 2003, published 2013)

What was measured:
Bartlett pears [1] = assay: Evaluation of sliced Bartlett pears preserved with fresh produce preservative (scores); set-up: key: 1–10 scale, 10 = freshly cut fruit; below 7 not acceptable; conditions: for Color / Flavor / Moistness / Texture: scale to 10; for color/appearance score: scale to 10 (Table 5)
Procedure: The texture, flavor, and moistness of the fruit were evaluated by tasting fruit samples. The color and/or appearance was also evaluated by visual inspection. The color, texture, moistness and flavor were then evaluated according to a scale of either 1 to 10, with 10 being the value assigned to a freshly cut piece of comparative fruit or vegetable. A value of less than 7 is not acceptable.
(§1) Whole Red Delicious apples were rinsed with tap water, sanitized with a sodium hypochlorite solution containing 100 ppm chlorine, then cored and sliced. The apple slices were immersed in water for 0.5 to 2 minutes. Then the apple slices were dipped into produce preservative solution containing 4% ascorbic acid and 1.59% K2CO3 having a pH 5.69 for 1 minute. The slices were removed from the solution and drained for 1-2 minutes, sealed in polyethylene bags, and stored at 2-5° C. For controls, sliced apples either not treated or were dipped into either 4% ascorbic acid with 0.66% NaOH to adjust the pH to 4.45. For comparison, sliced apples were dipped into a solution containing 4% ascorbic acid and 1.22% Na2CO3 and having a pH of 5.58.
(§2) Bartlett pears were preserved with the fresh produce preservative as in Example 1a, with preservative solution that contained 4% ascorbic acid and 1.59% K2-CO3. For comparison, pears were treated with a comparative solution that contained 4% ascorbic acid and 1.22% Na2CO3.
Bartlett pears were preserved with the fresh produce preservative as in Example 1a, except that the preservative solution contained 4% ascorbic acid and 1% Li2CO3.

Bartlett pears [2] = assay: Hardness of sliced Bartlett pears
Procedure: The firmness or hardness of the fruit is the force required for a probe to penetrate the fruit a given distance into the fruit. The firmness is determined using a Quality and Test System 25 and TA 40 probe from Stevens Company. The TA 40 probe a black acetate, 4.5 mm diameter, 20 mm long rod probe having a flat end. The following settings were employed in the QTS system: the test type is a compression test of one cycle, 0 second hold time, 0 second recovery, 5 g trigger point, 30 mm/min test speed, target unit distance, and a target value of 3 mm. The apple pieces were 1 cm thick.
as §1, §2

Bramley apples = assay: Evaluation of sliced Bramley apples: appearance by visual inspection, firmness by bending
Procedure: The firmness of the produce in Example 11a were evaluated by bending produce samples. Appearance was evaluated by visual inspection. The moisture was evaluated by measuring the amount of water the produce released.
Whole Bramley apples free from blemishes or bruises, were rinsed with water, sanitized with a sodium hypochlorite solution having 100 parts per million available chlorine, for two minutes, then peeled, cored, and sliced. The sliced apples were dipped into a fresh produce preservative solution that contained 5.12% strontium ascorbate; the fresh produce preservative solution contained 4.12% ascorbic acid and 1.79% […], for about 30 to 60 seconds. The apples were then drained in a colander for one minute. The apple slices and the colander were placed in 500 micron plastic bags from SunSet Packaging, stored at 4° C. and evaluated several times over a 15 day period. Water which collected in the plastic bag was removed and weighed.
For comparison, similarly prepared apple slices were placed in one of several solutions that contained either: 4.3% ascorbic acid and 1.13% hydrated MgCO3, specifically 4MgCO3.Mg(OH)25H2O or a 5.0% w/w aqueous solution of calcium ascorbate dihydrate, having a pH of 7.2; or a 5.3% w/w solution, of 4.12% ascorbic acid and 1.17% calcium carbonate,; or 6% ascorbic acid having a pH of 2.3; or 48 g ascorbic acid, 48 g citric acid, 16 g CaCl2 and 48 g NaCl in 800 g water, with a pH of 1.2; or 6% w/w citric acid and 6% w/w ascorbic acid; or 4.64% sodium ascorbate having 4.13% ascorbic acid and 1.18% NaCo3.
Bramley apples were preserved with the fresh produce preservative as in Example 11a except that the preservative solution contained lithium ascorbate. The lithium ascorbate solution was prepared by adding 7.35 grams of lithium carbonate and 35 grams ascorbic acid to 800 grams water.
For comparison, apple slices were placed in one of several comparative solutions: a 5.0% w/w aqueous solution of calcium ascorbate dihydrate containing 42.5 grams of calcium ascorbate dihydrate and 800 grams water with a pH of 7; a 5.3% w/w solution of calcium ascorbate containing 44.94 grams of mixture of 9.95 grams calcium carbonate and 35 grams ascorbic acid in 800 grams water with a pH of 5.5; a comparative solution, containing 48 g ascorbic acid, 48 g citric acid, 16 g CaCl2, 48 g NaCl and 800 g water with a pH of 1.2; a comparative solution of sodium ascorbate containing 28.45 grams of sodium carbonate 35 grams ascorbic acid, 800 grams water having a pH of 6.8; a comparative solution of calcium ascorbate containing 8.75 grams of calcium carbonate, 35 grams ascorbic acid, and to 800 grams water; a comparative solution of calcium ascorbate containing 9.95 grams of calcium carbonate, 35 grams ascorbic acid, and 765 grams water; a comparative solution of magnesium ascorbate containing 9.66 grams of hydrated magnesium carbonate 4MgCO3.Mg(OH)25H2O, 35 grams ascorbic acid, 765 grams water, having a pH of 6.4; and a comparative solution of zinc ascorbate containing 35 grams ascorbic acid, 12.74 grams zinc carbonate and 765 grams water, with a pH of 5.5. The apple slices were evaluated on day five.

Which Color (Bartlett pears [1]; 0 hour) does the source give for O=C1O[C@H]([C@@H](O)CO)C(O)=C1O [Ascorbic Acid, ascorbic acid] here?
The Color was 10.

What about the Flavor (Bartlett pears [1]; 0 hour) of the same molecule?
The Flavor was 5.

And the Moistness (Bartlett pears [1]; 0 hour)?
Its Moistness is 10.

What about the Texture (Bartlett pears [1]; 0 hour) of the same molecule?
The Texture was 10.

What about the Color (Bartlett pears [1]; 1 week) of the same molecule?
Its Color is 8.6.

And the Flavor (Bartlett pears [1]; 1 week)?
The Flavor was 8.8.

What about the Moistness (Bartlett pears [1]; 1 week) of the same molecule?
Its Moistness is 7.

And the Texture (Bartlett pears [1]; 1 week)?
The Texture was 3.

And the Color (Bartlett pears [1]; 2 weeks)?
Its Color is 6.4.

What about the Flavor (Bartlett pears [1]; 2 weeks) of the same molecule?
Its Flavor is 3.4.

What about the Texture (Bartlett pears [1]; 2 weeks) of the same molecule?
Its Texture is 1.

What about the Color (Bartlett pears [1]; 1 day) of the same molecule?
The Color was 10.

And the Flavor (Bartlett pears [1]; 1 day)?
The Flavor was 9.

What about the Moistness (Bartlett pears [1]; 1 day) of the same molecule?
Its Moistness is 10.

What about the Texture (Bartlett pears [1]; 1 day) of the same molecule?
The Texture was 9.6.

And the color/appearance score (Bartlett pears [1]; 1 day)?
Its color/appearance score is 10.

What about the color/appearance score (Bartlett pears [1]; 2 days) of the same molecule?
The color/appearance score was 6.

And the “Hardness” value (Bartlett pears [2]; 0 hour)?
Its value is 2215 g.

What about the “Hardness” value (Bartlett pears [2]; 1 week) of the same molecule?
The value was 315 g.

What about the “Hardness” value (Bartlett pears [2]; 2 weeks) of the same molecule?
The value was 79 g.

And the Texture (Bramley apples; 28 hr at 4° C.)?
Its Texture is “Firm”.

And the Texture (Bramley apples; 52 hr at 4° C.)?
The Texture was “Firm”.

What about the “Appearance (visual inspection)” value (Bramley apples; 191 hr at 4° C.) of the same molecule?
The value was “brown”.

And the Texture (Bramley apples; 191 hr at 4° C.)?
Its Texture is “soft”.
